Among the data in ChEMBL document CHEMBL1201862, “PubChem BioAssay data set” (2004) are EC50 and AC50 values, retold here.

Where “and” joins values, the source holds several entries; their conditions need not be identical. Equal values may be shown once. Calls of active or inactive are those of the source. Cut-off read from the data, not from the text of the source, for most assays here: actives have a measured EC50 and inactives only a lower limit.

A short description of experiment [1]: inhibitors of intracellular T. cruzi replication, confirmation, NIH3T3 host cells, beta-gal luminescence (AID 2044).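 Note: intracellular parasites grown in NIH/3T3 mouse fibroblasts as host cells; luminescent beta-galactosidase reporter signal from transgenic T. cruzi replicating inside host cells; inhibitors lower the luminescence signal.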 The experiment is classed as functional, cell-based.
A short description of experiment [2]: cytotoxicity toward NIH3T3 fibroblasts, dose response, counter-screen, cell-based, ATP luminescence, mouse fibroblasts (AID 2010).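 Note: cells exposed to compound for about 90 hours before reading.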 In kind it is functional. For orientation: The purpose of a counterscreen is to sort out artefacts and off-target activity.
In experiment [3] the target is T1, Heat shock factor protein 1 (Mus musculus, UniProt P38532).
T1 sequence (P38532 whole entry): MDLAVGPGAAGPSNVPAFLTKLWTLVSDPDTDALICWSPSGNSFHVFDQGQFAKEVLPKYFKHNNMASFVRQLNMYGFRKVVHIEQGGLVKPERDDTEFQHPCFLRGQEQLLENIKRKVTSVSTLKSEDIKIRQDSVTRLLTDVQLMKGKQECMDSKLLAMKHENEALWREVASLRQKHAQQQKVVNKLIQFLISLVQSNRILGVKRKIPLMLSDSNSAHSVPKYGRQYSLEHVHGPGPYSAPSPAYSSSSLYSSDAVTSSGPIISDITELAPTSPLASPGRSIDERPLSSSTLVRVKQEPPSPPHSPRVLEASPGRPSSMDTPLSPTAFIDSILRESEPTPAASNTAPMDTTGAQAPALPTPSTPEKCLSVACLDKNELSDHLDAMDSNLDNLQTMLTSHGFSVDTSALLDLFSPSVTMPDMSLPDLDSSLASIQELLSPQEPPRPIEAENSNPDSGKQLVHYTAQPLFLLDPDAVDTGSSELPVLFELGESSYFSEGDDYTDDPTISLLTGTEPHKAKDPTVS
Description: inhibition of MG132-induced HSE-luciferase signal, confirmation, cell-based, NIH3T3, luminescence, dose retest (AID 2382).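 Note: NIH3T3 fibroblasts with HSF1-driven luciferase reporter stressed by proteasome inhibitor MG132; luminescence from HSF1-driven luciferase expression after 8 hours of MG132 stress.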 The experiment is classed as functional.

In experiment [4] the target is Cytochrome P450 3A4 (Homo sapiens, UniProt P08684).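 Note: CYP3A4 tested as one member of a cytochrome P450 panel screen.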
Experiment [5] concerns INS1. The experiment can be described thus: beta cell apoptosis inhibitors, cytokine rescue, dose response, luminescence, retest (AID 449756).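 Note: cell death triggered by IL-1 beta plus TNF-alpha plus IFN-gamma mixture; protective hits raise ATP signal compared with cytokine alone wells.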 In kind it is functional, cell-based. As to conditions: Rattus norvegicus.

Cytochrome P450 3A4, sequence (P08684 whole entry): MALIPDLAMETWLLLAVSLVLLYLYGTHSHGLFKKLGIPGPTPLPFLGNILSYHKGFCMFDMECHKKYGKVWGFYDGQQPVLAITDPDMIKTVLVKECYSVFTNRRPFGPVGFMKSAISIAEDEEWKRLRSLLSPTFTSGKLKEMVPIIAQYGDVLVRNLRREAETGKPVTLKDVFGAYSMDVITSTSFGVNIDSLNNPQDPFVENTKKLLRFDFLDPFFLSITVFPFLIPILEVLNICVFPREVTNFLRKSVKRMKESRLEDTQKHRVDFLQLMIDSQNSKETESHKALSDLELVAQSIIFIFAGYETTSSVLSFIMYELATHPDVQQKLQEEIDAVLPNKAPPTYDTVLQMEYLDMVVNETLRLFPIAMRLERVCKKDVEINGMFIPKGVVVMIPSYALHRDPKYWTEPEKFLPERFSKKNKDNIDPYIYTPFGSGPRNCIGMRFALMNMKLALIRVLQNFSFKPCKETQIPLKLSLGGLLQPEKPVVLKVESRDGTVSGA

One may read the EC50 as the concentration at which the effect is half-maximal. Regarding `CCOP(=O)(OCC)c1nc(-c2cccc3ccccc23)oc1NCc1ccc(OC)cc1`, the EC50 in experiment [1] was 2.45 µM (active); in experiment [2], > 60 µM (not active).
With `CC(Sc1nnnn1C)C(=O)Nc1ccc(Oc2ccccc2)cc1` (stereo not drawn), the EC50 in experiment [3] is > 195 µM (not active).
For `CCCCn1c(SCC(=O)NCc2ccco2)nc2c(sc3ccccc32)c1=O`, the EC50 in experiment [3] is given as > 195 µM (not active).
As to `Cc1cc(/C=N/N2CCN(C)CC2)c(C)n1-c1ccccc1F`, the EC50 in experiment [1] was 1.81 µM (active); in experiment [2], > 60 µM (not active).
Take `NC(=O)COC(=O)c1ccccc1Oc1ccccc1`: the EC50 in experiment [3] is > 195 µM (not active).
Broadly, the AC50 is the concentration giving half of the maximal activity seen. Take `Cn1c(=O)c2nc(CCCc3ccc([N+](=O)[O-])cc3)[nH]c2n(C)c1=O`: the half-maximal activity concentration (AC50) in experiment [4] is 3.98 µM (inconclusive).
Take `COc1ccc(N2C(=O)CC(c3ccc(OC(C)C)cc3)C2=O)cc1` (stereo not drawn): in experiment [3], the EC50 is reported as > 195 µM (not active).
The same measure, in the same setting: next, `Cc1c(-c2ccccc2)[n+]([O-])c2c([n+]1[O-])CCC2`: > 195 µM (not active).
As to `C/C(=N\OC(=O)NC(C)C)c1sc(-c2ccc(Cl)cc2)nc1C`, the AC50 in experiment [4] is 31.6 µM (inconclusive).
Consider `CCNC(=O)NC(=O)c1csc([N+](=O)[O-])c1`, for which the values for the EC50 in experiment [1] and in experiment [2] were 0.415 µM (active) and > 30 µM (not active), respectively.
As for `C=CCn1c(SCN2C(=O)c3ccccc3C2=O)nc2ccc(Cl)cc2c1=O`, in experiment [5], the AC50 is 7.25 µM (active).
As for `COc1cc2c(-c3ccccc3)c(C)oc2cc1/C=N/NC(N)=S`, the figures for the EC50 in experiment [1] and in experiment [2] were 0.102 µM (active) and > 60 µM (not active), respectively.
As to `NC(=O)c1ccsc1NC(=O)C1CCCCC1`, in experiment [3], the EC50 is > 195 µM (not active).
In the case of `c1ccc(/C(=N/Nc2nc3ccccc3s2)c2ccccn2)cc1`, in experiment [4], the AC50 is 3.98 µM (inconclusive).
Take `COc1ccc(S(=O)(=O)NCC(c2cccnc2)N2CCN(C)CC2)cc1OC` (stereo not drawn): in experiment [3], the EC50 is listed as > 195 µM (not active).
Regarding `Cc1cc(C)n(C(=O)CNC(=O)Cc2ccccc2)n1`, the EC50 in experiment [3] is given as > 195 µM (not active).
Take `CSc1nc(SCC(=O)NC(c2ccccc2)c2ccccc2)c2c3c(sc2n1)CN(C)CC3`: the EC50 in experiment [1] is 0.237 µM (active); in experiment [2], > 60 µM (not active).
As for `O=C(c1cnccn1)N1CCC[C@@]2(CCN(c3ncccn3)C2)C1`, the AC50 in experiment [4] was 15.8 µM (inconclusive).
Regarding `C/C(=N/NC(=S)Nc1cccc(C)c1)c1cccc([N+](=O)[O-])c1`, the EC50 in experiment [1] was 1.63 µM (active); in experiment [2] it was > 60 µM (not active).
The like results for `CCN(CC)P(=O)(Nc1ccc(C)cc1Br)c1ccc(N(C)C)cc1NC(=O)c1ccco1` (stereo not drawn) were, in that order, 2.27 µM (active) and > 60 µM (inconclusive).
Take `N=C(NOC(=O)c1cccc(Cn2cc(C(F)(F)F)ccc2=O)c1)c1ccc(Cl)cc1`: in experiment [5], the AC50 was 12.4 µM (active).
For the compound `C=CCOc1ccccc1CN1CCCC(CCC(=O)N(C)CCc2ccccn2)C1` (stereo not drawn), the EC50 in experiment [1] is 0.412 µM (active); in experiment [2], > 60 µM (not active).
In the case of `CC1CC(c2ccccc2)n2nc(NC(=O)c3cccs3)nc2N1` (stereo not drawn), the EC50 in experiment [3] is listed as > 195 µM (not active).
Take `CCN(CC)CCOCCOc1cc(C)c(Cl)c(C)c1`: the EC50 in experiment [1] is 0.408 µM (active); in experiment [2], 9.47 µM (active).
`O=C(O)CC1SC(=O)N(Cc2ccccc2)C1=O` (stereo not drawn): the EC50 in experiment [3] is listed as > 195 µM (not active).
Regarding `CCCC(=O)NC(N=C(S)Nc1ccc(N=Nc2ccccc2)cc1)C(Cl)(Cl)Cl` (stereo not drawn), the AC50 in experiment [5] is 5.34 µM (active).
Regarding `Cc1cc(C)cc(N(C(=O)Cc2cccs2)C(C(=O)NC2CCCCC2)c2ccccn2)c1` (stereo not drawn), in experiment [4], the AC50 was 0.891 µM (inconclusive).
On to `NC=C1C(=O)N(c2ccccc2)C(=O)N(c2ccccc2)C1=O`, for which the EC50 in experiment [3] is > 195 µM (not active).
`Cc1ccc(S(=O)(=O)N(C)c2ccccc2C(=O)NC2CCCC2)cc1`: the EC50 in experiment [3] was > 195 µM (not active).
On the same count and under the same terms, next, `CCc1nc(SCC(=O)NCCc2ccc(OC)c(OC)c2)c2c(=O)n(C)c(=O)n(C)c2n1`: > 195 µM (not active); `Oc1nc2ccccc2n2cnnc12`: > 195 µM (not active).
For the compound `COc1ccc(OC)c(C2/C(=C(\O)c3ccccc3)C(C)=Nc3nc4ccccc4n32)c1` (stereo not drawn), the EC50 in experiment [1] was 1.51 µM (active); in experiment [2] it was > 60 µM (not active).
As for `Cc1ccc(-n2c(O)cnc2Nc2nc(C)cc(C)n2)cc1`, the AC50 in experiment [4] was 31.6 µM (inconclusive).
For `CC(C)CN(C(=O)COC(=O)c1ccc([N+](=O)[O-])s1)c1c(N)n(Cc2ccccc2)c(=O)[nH]c1=O`, the results for the EC50 in experiment [1] and in experiment [2] were 1.06 µM (active) and 4.8 µM (active), respectively.
For `COc1ccccc1C(=O)NCCC(=O)NNC(=O)Cn1ccc(C(F)(F)F)n1`, in experiment [3], the EC50 was > 195 µM (not active).
With `C[C@@H](c1ccccc1)N1C(=O)[C@H]2[C@H]3[C@H](O)[C@H](O)C/C(=N/OCc4ccccc4)[C@H]3CC[C@@H]2C1=O`, in experiment [4], the AC50 is 3.16 µM (inconclusive).
Consider `COc1ccc(C(=O)N(C)c2ccccc2C(=O)NCCc2ccccc2)cc1`, for which, in experiment [5], the AC50 is 4.32 µM (active).
Turning to `O=C(CCc1nnc2ccc(N3CCC4(CC3)OCCO4)nn12)NCc1ccc(F)cc1`, the EC50 in experiment [3] is listed as > 195 µM (not active).
For `CN(C)c1ccc(-c2nc(N3CCNCC3)c3ccccc3n2)cc1`, the AC50 in experiment [4] is 31.6 µM (inconclusive).
For `O=c1[nH]c(NCCCO)nc2c1C1(CCCC1)Cc1ccccc1-2`, the AC50 in experiment [5] is > 260 µM (inactive).
In the case of `Cc1c(C(=O)NCc2ccc3c(c2)OCO3)sc2nc(-c3ccccc3)cn12`, in experiment [3], the EC50 is recorded as > 195 µM (not active).
With `Cc1ccc([C@@H](O)c2cnc(C)n2Cc2ccccc2)cc1`, the AC50 in experiment [4] was 5.01 µM (inconclusive).
As for `Cc1ccc(NC(=O)CCN2CCCCC2)cc1`, the EC50 in experiment [3] is 4.53 µM (active).
As to `CCCCc1ccc(NC(S)=NCc2cccs2)cc1`, the EC50 was 2.6 µM (active) in experiment [1] and > 60 µM (not active) in experiment [2].
As for `COc1ccc2[nH]cc(CCNc3ncnc4ccc(-c5ccccc5OC)cc34)c2c1`, the AC50 in experiment [4] is 0.794 µM (inconclusive).
On to `CCC(C)C(NC(=O)C1CCC(=O)N1C(=O)OCc1ccccc1)C(=O)NC(C(=O)N1CCCC1C(N)=O)C(C)CC` (stereo not drawn), for which the EC50 in experiment [3] is on record as > 195 µM (not active).
Regarding `O=C(c1ccco1)N(Cc1cc2ccccc2nc1O)C1CCCCC1`, in experiment [3], the EC50 is listed as > 195 µM (not active).
Same read-out and setting: next, `O=C(CN1CC=C(c2ccccc2)CC1)NC(=O)NCc1ccccc1`: > 195 µM (not active).
Take `O=C(c1ccc(Cl)cc1Cl)C1(n2cncn2)Oc2ccccc2C1O` (stereo not drawn): the EC50 in experiment [1] was 0.535 µM (active); in experiment [2] it was 18 µM (active).
Consider `CO[C@H]1COC(=O)C/C=C\[C@@H](C)COC(=O)[C@@H](CCSC)NC(=O)C/C=C\[C@@H]1C`, for which the AC50 in experiment [4] was 3.98 µM (inconclusive) and 5.01 µM (inconclusive).
Turning to `CCOc1cc(C(=O)NCc2ccccc2)ccc1OCC(=O)N1CCOCC1`, in experiment [3], the EC50 is listed as > 195 µM (not active).
As for `CCOC(=O)N1CCN(CC(O)COCCC23CC4CC(CC(C4)C2)C3)CC1` (stereo not drawn), the values for the EC50 in experiment [1] and in experiment [2] were 1.16 µM (active) and > 30 µM (not active), respectively.
Take `COCC(=O)N1CCC[C@@]2(CCN(Cc3ccccc3)C2)C1`: the AC50 in experiment [4] was 25.1 µM (inconclusive).
Regarding `CCOC(=O)CSc1ccc(C(=O)NCCCN2CCOCC2)cc1[N+](=O)[O-]`, the EC50 in experiment [3] was > 195 µM (not active).
